Assays:
mouse ATB^0,+ [1] = biological target: T1, mouse ATB^0,+ (Mus musculus, UniProt Q9JMA9); test: Substrate-induced inward currents in X. laevis oocytes expressing mouse ATB^0,+ (two-microelectrode voltage clamp); format: cell-based; conditions: saturation kinetics; NaCl; voltage clamp
T1 sequence (Q9JMA9 1-638): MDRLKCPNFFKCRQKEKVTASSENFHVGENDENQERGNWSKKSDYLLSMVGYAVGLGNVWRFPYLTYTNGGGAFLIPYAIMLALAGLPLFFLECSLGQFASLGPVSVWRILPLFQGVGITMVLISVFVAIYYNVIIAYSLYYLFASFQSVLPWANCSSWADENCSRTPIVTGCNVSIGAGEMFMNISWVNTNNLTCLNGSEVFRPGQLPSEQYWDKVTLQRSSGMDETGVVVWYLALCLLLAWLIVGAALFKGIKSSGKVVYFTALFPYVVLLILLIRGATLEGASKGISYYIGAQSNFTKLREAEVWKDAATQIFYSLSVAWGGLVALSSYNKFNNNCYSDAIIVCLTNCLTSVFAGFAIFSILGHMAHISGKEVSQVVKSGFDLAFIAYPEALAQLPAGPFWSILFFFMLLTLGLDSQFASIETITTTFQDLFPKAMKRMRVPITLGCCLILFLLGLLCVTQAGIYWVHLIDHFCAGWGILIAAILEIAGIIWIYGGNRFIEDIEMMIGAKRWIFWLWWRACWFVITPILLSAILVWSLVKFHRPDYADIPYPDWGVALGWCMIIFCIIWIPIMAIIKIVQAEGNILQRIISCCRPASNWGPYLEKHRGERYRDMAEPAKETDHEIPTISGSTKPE
Method: (§1) Capped cRNA from the cloned mouse or human ATB^0,+ cDNA was synthesized using the mMESSAGE mMACHTNE kit (Ambion, Austin, Tex., U.S.A.). Mature oocytes (stage IV or V) from X. laevis were injected with 50 ng of cRNA. Uninjected oocytes served as controls. The oocytes were used for electrophysiological studies 3-6 days after cRNA injection. Electrophysiological studies were performed by the two-microelectrode voltage-clamp method (Nakanishi et al., 2001, J. Physiol. 532, 297-304). Oocytes were superfused with an NaCl-containing buffer (100 mM NaCl, 2 mM KCl, 1 mM MgCl2, 1 mM CaCl2, 3 mM Hepes, 3 mM Mes and 3 mM Tris, pH 7.5), followed by the same buffer containing tryptophan derivatives. The membrane potential was clamped at −50 mV. The differences between the steady-state currents measured in the presence and absence of substrates were considered as the substrate-induced currents. In the analysis of the saturation kinetics of substrate-induced currents, the kinetic parameter K0.5 (i.e. substrate concentration necessary for induction of half-maximal current) was calculated by fitting the values of the substrate-induced currents to the Michaelis-Menten equation. The Na^+ and Cl^− activation kinetics of substrate-induced currents were analysed by measuring the substrate-specific currents in the presence of increasing concentrations of Na^+ (concentration of Cl^− kept constant at 100 mM) or in the presence of increasing concentrations of Cl^− (concentration of Na^+ kept constant at 100 mM). In these experiments, the composition of the superfusion buffer was modified to contain 2 mM potassium gluconate, 1 mM MgSO4 and 1 mM calcium gluconate in place of KCl, MgCl2 and CaCl2 respectively. The data from these experiments were analysed by the Hill equation to determine the Hill coefficient (h; number of Na^+ and Cl^− ions involved in the activation process). The kinetic parameters were determined by using the commercially available computer program Sigma Plot, version 6.0 (SPSS, Chicago, Ill., U.S.A.). Uninjected oocytes were used to determine the currents induced by tryptophan derivatives due to entry via transporters that may be constitutively expressed in the oocytes. At a concentration of 2.5 mM, the currents induced by these compounds were in the range of 0-3 nA in uninjected oocytes. These currents were less than 2% of the corresponding currents induced in ATB^0,+ cRNA-injected oocytes. Therefore the endogenous currents associated with the constitutively expressed transporters were not considered in the analysis of kinetic parameters of ATB^0,+ transport activity.
The above studies with the mammalian cell expression system have focused on the interaction of 1-methyltryptophan and other tryptophan derivatives with ATB^0,+ by examining the effects of these compounds on the transporter-mediated glycine uptake. These studies have shown convincingly that 1-methyltryptophan interacts with ATB^0,+, with the L-isomer having much higher affinity for the transporter than the D-isomer. However, these studies have not shown whether or not 1-methyltryptophan is actually a transportable substrate for ATB^0,+. It is possible that 1-methyltryptophan inhibits ATB^0,+-mediated glycine uptake simply by blocking the interaction of glycine with the substrate-binding site of the transporter, rather than by actually competing with glycine for the transport process. […] We wanted to know whether 1-methyltryptophan can actually be transported by ATB^0,+. For this, we used the X. laevis oocyte expression system. Since the transport process mediated by ATB^0,+ is electrogenic, exposure of ATB^0,+-expressing oocytes to transportable substrates will induce an inward current in an Na^+- and Cl^−-dependent manner. Exposure of the same oocytes to blockers will interfere with currents induced by transportable substrates, but will not induce currents by themselves. […]

human ATB^0,+ [2] = biological target: T2, human ATB^0,+ (Homo sapiens, UniProt Q9UN76); test: L-tryptophan-induced inward currents in X. laevis oocytes expressing human ATB^0,+; format: cell-based; conditions: 20 μM L-tryptophan (sub-saturating)
T2 construct: The human ATB^0,+ cDNA was cloned from an MCF7 cell (a human mammary epithelial cancer cell line) cDNA library; expressed in transfected cells; host or cells: Xenopus laevis oocytes injected with 50 ng capped cRNA
T2 sequence (Q9UN76 1-642): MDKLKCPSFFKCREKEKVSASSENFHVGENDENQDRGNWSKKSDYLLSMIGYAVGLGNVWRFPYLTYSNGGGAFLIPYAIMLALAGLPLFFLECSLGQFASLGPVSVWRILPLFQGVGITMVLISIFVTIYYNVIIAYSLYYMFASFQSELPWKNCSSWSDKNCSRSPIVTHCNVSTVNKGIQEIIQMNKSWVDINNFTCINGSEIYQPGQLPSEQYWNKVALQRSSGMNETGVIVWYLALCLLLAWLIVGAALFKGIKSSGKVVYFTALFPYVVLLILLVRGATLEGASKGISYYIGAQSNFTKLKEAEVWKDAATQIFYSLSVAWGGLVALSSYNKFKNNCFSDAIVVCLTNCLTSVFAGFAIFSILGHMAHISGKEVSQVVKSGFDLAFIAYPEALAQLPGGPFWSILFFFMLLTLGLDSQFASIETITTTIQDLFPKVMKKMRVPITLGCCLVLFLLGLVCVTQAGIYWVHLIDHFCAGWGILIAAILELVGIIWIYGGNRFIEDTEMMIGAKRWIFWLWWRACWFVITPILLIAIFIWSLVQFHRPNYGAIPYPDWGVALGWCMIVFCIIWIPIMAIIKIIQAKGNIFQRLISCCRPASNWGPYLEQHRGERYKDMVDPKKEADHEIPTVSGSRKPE
Method: as §1, with “Uninjected oocytes were used to determine the currents induced by tryptophan derivatives due to entry via transporters that may be constitutively expressed in the oocytes. At a concentration of 2.5 mM, the currents induced by these compounds were in the range of 0-3 nA in uninjected oocytes. These currents were less than 2% of the corresponding currents induced in ATB^0,+ cRNA-injected oocytes. Therefore the endogenous currents associated with the constitutively expressed transporters were not considered in the analysis of kinetic parameters of ATB^0,+ transport activity.” left out

mouse ATB^0,+ [3] = biological target: T1, mouse ATB^0,+; test: Inhibition of ATB^0,+-mediated glycine uptake in HRPE cells expressing cloned mouse ATB^0,+; format: cell-based; conditions: glycine 10 μM; inhibitor 1 mM; 30 min; NaCl; HRPE cells
human ATB^0,+ [4] = biological target: T2, human ATB^0,+; test: Block of inward currents induced by amino acid mixture simulating plasma in X. laevis oocytes expressing human ATB^0,+; format: cell-based
Method: as §1
These studies with α-methyl-DL-tryptophan as a blocker of ATB^0,+ were carried out with L-tryptophan at sub-saturating concentrations. […] Therefore, using the Xenopus oocyte heterologous expression system, we monitored the transport activity of human ATB^0,+ in the presence of an amino acid mixture consisting of 18 different amino acids, each at its respective physiological concentration found in plasma (Glew et al., 2004, Clin. Chim. Acta 342, 179-185) (Table 1). Inward currents were detected under these conditions in oocytes expressing human ATB^0,+. […] We then monitored the ability of α-methyl-DL-tryptophan to block the inward currents induced by the same mixture of amino acids in oocytes expressing human ATB^0,+ (FIG. 4B). […]

HCT116 and LS174T cells [5] = test: mTOR pathway: phosphorylation of S6 protein and S6 kinase in colon cancer cell lines; format: cell-based, human; conditions: 24 h exposure
Method: (§2) The mTOR pathway plays a critical role in nutrient signaling in mammalian cells (Wang and Proud, 2006, Physiology (Bethesda) 21: 362-369). Amino acid starvation leads to specific changes in this pathway. We sought evidence for amino acid starvation in ATB^0,+-positive colon cancer cell lines when exposed to α-methyl-L-tryptophan (α-MLT) (250 μM). […] These changes were also accompanied with cell cycle arrest in cancer cell lines (FIG. 16). In the normal cell line CCD841, there was no difference between control and α-MLT-treated cells in terms of percent of cells in difference cell cycle stages. […] The phosphorylation pattern observed in the two cancer cell lines is a hallmark of changes in mTOR pathway in response to amino acid deprivation. Autophagy (self-cannabilism) is another cellular process that is induced when cells undergo amino acid deprivation (Eisenberg-Lerner and Kimchi, 2009, Apoptosis 14: 376-391). To survive in the absence of exogenous essential amino acids during amino acid deprivation, cells engage in autophagic degradation of intracellular macromolecules and organelles as a source of these amino acids. Therefore, we investigated the process of autophagy in LS174T cells with and without exposure to α-MLT for 24 hours. For this, we analyzed the distribution of LC-3 protein. […] Apoptosis was quantified by FACS analysis.

HCT116 and LS174T cells [6] = test: Cell cycle analysis in colon cancer cell lines; format: cell-based, human; conditions: 250 μM; 24 hour
Method: as §2

HCT116 and LS174T cells [7] = test: Apoptosis (sub-G1 cells, FACS) in colon cancer cell lines; format: cell-based, human; conditions: 72 hours
Method: as §2

CCD841 cells [8] = test: mTOR pathway: phosphorylation of S6 protein and S6 kinase in normal colon cell line; format: cell-based, human; conditions: 24 h exposure
Method: as §2

CCD841 cells [9] = test: Cell cycle analysis in normal colon cell line; format: cell-based, human; conditions: 250 μM; 24 hour
Method: as §2

CCD841 cells [10] = test: Autophagy: immunofluorescent localization of LC-3 in normal colon cells; format: cell-based, human; conditions: absence or presence of α-MLT
LS174T cells = test: Autophagy: immunofluorescent localization of LC-3 in colon cancer cells; format: cell-based, human; conditions: 24 hours exposure
Method: as §2

HCT116 and LS174T cells [11] = test: Amino acid starvation markers: ASNS and CHOP gene induction in ATB^0,+-positive colon cancer cell lines; format: cell-based, human; conditions: 250 μM; 24 hour exposure
Method: as §2

Row | Compound | Michaelis constant (K0.5) of substrate-induced currents (mouse ATB^0,+ [1]) [µM] | inward currents induced by L-tryptophan (human ATB^0,+ [2]) [nA] | inhibition of ATB^0,+-specific glycine uptake (mouse ATB^0,+ [3]) | IC50 (human ATB^0,+ [4]; 18 amino acids at normal plasma concentrations, read-out: concentration necessary to elicit 50% of maximal inhibition (IC50) of amino acid mixture-induced currents) [µM] | IC50 of L-isomer relative to DL-form (times less) (human ATB^0,+ [4]; amino acid mixture simulating plasma) [times] | phosphorylation of S6 protein and S6 kinase (HCT116 and LS174T cells [5]) | percent of cells in G1 phase (HCT116 and LS174T cells [6]) | percent of cells in S and G2/M phases (HCT116 and LS174T cells [6]) | percent of apoptotic cells (cells in sub-G1 phase) (HCT116 and LS174T cells [7]) | phosphorylation of S6 protein and S6 kinase (CCD841 cells [8]) | percent of cells in different cell cycle stages, control versus treated (CCD841 cells [9]) | autophagy (CCD841 cells [10]) | punctate fluorescent signals for LC-3 (autophagy) (LS174T cells) | induction of ASNS and CHOP genes (HCT116 and LS174T cells [11])
1 | N[C@@H](Cc1c[nH]c2ccccc12)C(=O)O [L-tryptophan] | 26 ± 3 | ~30 | inhibited | – | – | – | – | – | – | – | – | – | – | –
2 | C[C@](N)(Cc1c[nH]c2ccccc12)C(=O)O [α-methyl-L-tryptophan, α-Methyl-L-Tryptophan] | – | – | – | 18 ± 5 | 14 | decreased phosphorylation | increased significantly | decreased | increased the percent of apoptotic cells | not in CCD841 cells | no difference | did not undergo autophagy | showed clear evidence of such signals | induced

Reference: patent US8436039B2, “Inhibitors of the ATB(0,+) transporter and uses thereof” (Georgia Health Sciences University Research Institute, Inc., priority 2008, dated 2013)
